The record followed here is US9365522B2, “Pyrazole amide derivative” (AMGEN INC., priority 2015, dated 2016).

In one assay the target is T1, ligand binding domain of human ROR gamma (Homo sapiens, UniProt P51449).
T1 construct: NM_001001523; expressed in transfected cells; host or cells: HEK293T
T1 sequence (P51449 247-497 isoform P51449-2): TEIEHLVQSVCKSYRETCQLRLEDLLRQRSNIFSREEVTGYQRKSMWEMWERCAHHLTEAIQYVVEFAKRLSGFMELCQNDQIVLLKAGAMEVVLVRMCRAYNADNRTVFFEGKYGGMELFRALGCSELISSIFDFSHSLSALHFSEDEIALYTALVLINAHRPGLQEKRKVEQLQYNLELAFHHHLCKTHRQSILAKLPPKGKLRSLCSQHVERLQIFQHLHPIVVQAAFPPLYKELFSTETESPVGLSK
As to the kind of experiment: ROR gamma reporter gene assay (GAL4-RORγ LBD luciferase, Dual-Glo). In kind it is cell-based. To be noted: HEK293T cells transfected with pM-ROR gamma, 8 concentrations 3.5 nM to 10.5 μM, 24 h incubation. The method in brief: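 Transient GAL4-RORγ LBD (aa 247-497) / 5×UAS-luc / pRL-CMV cotransfection in HEK293T, charcoal-stripped 10% FBS. 8-pt dose, 3.5 nM–10.5 μM, 0.075% DMSO final. 24 h, 37 °C, 5% CO2. Dual-Glo firefly/renilla readout; pIC50 from curve fit.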
As to “cis-3-(4-((2-(3,5-dichloropyridin-4-yl)-2- oxoethyl)(4-fluorobenzyl)carbamoyl)-5- (trifluoromethyl)-1H-pyrazol-1-yl)-1- fluorocyclohexanecarboxylic acid [Example 83]”, the “result (pIC50, inhibition of RORγ transcriptional activity)” value is recorded as 5.78.

Turning to “trans-4-(4-((2-(3-chloro-5-fluoropyridin-4-yl)- 2-oxoethyl)-(2,2-dimethylbutyl)carbamoyl)-5- (trifluoromethyl)pyrazol-1-yl)-1- methylcyclohexane-1-carboxylic acid [Example 337]”, the “result (pIC50, inhibition of RORγ transcriptional activity)” value was 7.20.

Staying with this assay, now noted: HEK293T cells transfected with pM-ROR gamma, 8 concentrations 3.5 nM to 10.5 μM, 24 h incubation; read-out: result (pIC50, inhibition of RORγ transcriptional activity) (converted).
As for `CC1(C)[C@@H]2C[C@H](N(CC(O)c3ncncc3Cl)C(=O)c3cnn([C@H]4CC[C@](C)(C(=O)O)CC4)c3C(F)(F)F)C[C@@H]21` (stereo partly drawn) [Example 408, trans-4-(4-((2-(5-chloropyrimidin-4-yl)-2-hydroxyethyl)((1R,3r,5S)-6,6-dimethylbicyclo[3.1.0]hexan-3-yl)carbamoyl)-5-(trifluoromethyl)-1H-pyrazol-1-yl)-1-methylcyclohexanecarboxylic acid], the IC50 is 331000 pM.

For the compound `CC1(C)[C@@H]2C[C@H](N(CC(N)c3c(F)cccc3Cl)C(=O)c3cnn([C@H]4CC[C@](C)(C(=O)O)CC4)c3C(F)(F)F)C[C@@H]21` (stereo partly drawn) [Example 409, trans-4-(4-((2-amino-2-(2-chloro-6-fluorophenyl)ethyl)((1R,3r,5S)-6,6-dimethylbicyclo[3.1.0]hexan-3-yl)carbamoyl)-5-(trifluoromethyl)-1H-pyrazol-1-yl)-1-methylcyclohexanecarboxylic acid], the IC50 was 776000 pM.

Consider `Cc1nccnc1C(O)CN(C(=O)c1cnn([C@H]2CC[C@](C)(C(=O)O)CC2)c1C(F)(F)F)[C@H]1C[C@@H]2[C@H](C1)C2(C)C` (stereo partly drawn) [Example 410, trans-4-(4-(((1R,3r,5S)-6,6-dimethylbicyclo[3.1.0]hexan-3-yl)(2-hydroxy-2-(3-methylpyrazin-2-yl)ethyl)carbamoyl)-5-(trifluoromethyl)-1H-pyrazol-1-yl)-1-methylcyclohexanecarboxylic acid], for which the IC50 is 2.14e+06 pM.

Take `CC1(C)[C@@H]2C[C@H](N(CC(O)c3ccsc3Cl)C(=O)c3cnn([C@H]4CC[C@](C)(C(=O)O)CC4)c3C(F)(F)F)C[C@@H]21` (stereo partly drawn) [Example 411, trans-4-(4-((2-(2-chlorothiophen-3-yl)-2-hydroxyethyl)((1R,3r,5S)-6,6-dimethylbicyclo[3.1.0]hexan-3-yl)carbamoyl)-5-(trifluoromethyl)-1H-pyrazol-1-y1)-1-methylcyclohexanecarboxylic acid]: the IC50 is 224000 pM.

For the compound `O=C(c1c(C(F)(F)F)nn([C@H]2CC[C@H](C(=O)O)CC2)c1C(F)(F)F)N(CCc1c(Cl)cncc1Cl)Cc1ccc(F)cc1` [Example 412, trans-4-(4-(2-(3,5-dichloropyridin-4-yl)ethyl-((4-fluorophenyl)methyl)carbamoyl)-3,5-bis(trifluoromethyl)pyrazol-1-yl)cyclohexane-1-carboxylic acid], the IC50 is 1.12e+06 pM.

A further assay deals with T2, human RORγ-LBD (Homo sapiens, UniProt P51449).
T2 construct: made in house; host or cells: E. coli (BL-21)
T2 sequence (P51449 262-518): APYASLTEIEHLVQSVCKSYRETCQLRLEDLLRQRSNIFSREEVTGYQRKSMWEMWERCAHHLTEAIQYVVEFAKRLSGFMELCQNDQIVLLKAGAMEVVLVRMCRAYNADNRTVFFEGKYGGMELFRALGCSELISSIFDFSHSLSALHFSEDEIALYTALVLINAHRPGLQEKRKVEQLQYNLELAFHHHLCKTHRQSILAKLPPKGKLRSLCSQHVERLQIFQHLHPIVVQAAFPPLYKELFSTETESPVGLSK
As to the kind of experiment: ROR gamma coactivator peptide recruitment Alphascreen assay (RORγ-LBD binding to GRIP1 coactivator peptide). In kind it is biochemical. The following applies: 5 nM human RORγ-LBD, 30 nM 7-β-hydroxycholesterol, 50 nM biotinylated GRIP1 coactivator peptide, overnight incubation at room temperature; read-out: result (pIC50, RORγ coactivator peptide recruitment Alphascreen assay) (converted). The source says:
Alphascreen™ is a bead-based amplified homogenous luminescent proximity assay that can be used for measuring the effect of compounds on protein-protein interactions. When biological interactions bring donor and acceptor beads into close proximity, reactive oxygen, generated upon laser excitation of the donor beads, initiates a luminescence/fluorescence cascade in the acceptor beads that leads to a highly amplified signal that can be measured as light in the 520-620 nm range. When the acceptor and donor beads are not in proximity, the reactive oxygen decays and only a very low background signal is generated.
An in vitro assay to assess inhibition of RORγ binding to the coactivator GRIP1 was established using Alphascreen™ technology. The interaction between nuclear receptors (NR) and coactivator proteins is a key step in signal transduction from the receptor to the transcriptional machinery and can be measured in vitro using only the ligand binding domain of the nuclear receptor and a peptide containing a coactivator protein LXXLL nuclear receptor binding motif
For the RORγ construct used in the coactivator recruitment assay, nucleotides corresponding to the ligand binding domain (LBD) of wild type human RORγ (amino acids 262-518 of Genbank Accession No. NM_005060.3) were cloned into the pET24 expression vector (Novagen), downstream of in-frame N-terminal 6×His and Flag tag sequences. Recombinant 6×His:Flag-tagged human RORγ-LBD protein was expressed in E. coli (BL-21) and purified by affinity chromatography on a nickel Sepharose column, followed by anion exchange chromatography.
A 4× assay mixture of 6×His:Flag-tagged human RORγ-LBD with the agonist ligand 7-β-hydroxycholesterol was prepared in assay buffer (50 mM HEPES pH 7.4, BSA 0.05%, 150 mM NaCl, 5 mM MgCl2, 1 mM DTT, 0.01% Tween-20). For control wells a 4× mixture of 6×His:Flag-tagged human ROR gamma LBD alone was also prepared.
A 4× stock of biotinylated coactivator peptide containing the LXXLL motif from GRIP1 (Biotin-[…]) was prepared in assay buffer.
A 4×detection mixture of nickel chelate Alphascreen™ acceptor beads (PerkinElmer) and streptavidin Alphascreen™ donor beads (PerkinElmer) was prepared in assay buffer.
Compounds to be tested were arranged in a pre-dose 384-well mother plate serially diluted 1 in 2 over 22 columns, in 100% DMSO, at 40× the final test concentration, from a high concentration of 4 mM. DMSO with no compound was placed in control columns. The compounds were robotically dispensed directly into assay plates containing assay buffer to a 4× final test concentration.
Following compound addition, the 6×His:Flag-tagged human RORγ-LBD plus 7-β-hydroxycholesterol assay mixture, biotinylated coactivator peptide and detection mixture were added. Final assay conditions were 5 nM 6×His:Flag-tagged human RORγ-LBD, 30 nM 7-β-hydroxycholesterol, 50 nM biotinylated coactivator peptide, 2.5 ug/ml nickel acceptor beads and 10 ug/ml streptavidin donor beads. The final concentration of DMSO in the assay was 2.5%.
After overnight incubation at room temperature plates were read on and Envision™ plate reader (PerkinElmer).
Data was plotted and pIC50 values were calculated using the Genedata Screener™ data analysis suite (Genedata).
On the technique in general: Alpha assays give light when donor and acceptor beads are brought close together.
For `COC(CN(CC(C)(C)C)C(=O)c1cnn([C@H]2CC[C@H](C(=O)O)CC2)c1C(F)(F)F)c1c(Cl)cc(C)cc1Cl` (relative stereo) [Example 529, trans-4-(4-(((2R/S)-2-(2,6-dichloro-4-methylphenyl)-2-methoxyethyl)(2,2-dimethylpropyl)carbamoyl)-5-(trifluoromethyl)-1H-pyrazol-1-yl)cyclohexanecarboxylic acid], the IC50 was 0.0631 µM.

`CC(C)[C@@H]1C[C@H](Cc2c(Cl)cncc2Cl)N(C(=O)c2cnn([C@H]3CC[C@](C)(C(=O)O)CC3)c2C(F)(F)F)C1` (single isomer, unassigned) [Example 701]: the IC50 is 0.00933 µM.

Turning to `CC(C)(C)CN(CC(=O)c1c(Cl)cncc1Cl)C(=O)c1cnn([C@H]2CC[C@H](C(=O)O)C(C)(C)C2)c1C(F)(F)F` (single isomer, unassigned) [Example 785], the IC50 was 0.00398 µM.

Turning to `C[C@]1(C(=O)O)CC[C@H](n2ncc(C(=O)N3C[C@@H](Oc4ccccc4)C[C@@H]3C(=O)c3c(Cl)cncc3Cl)c2C(F)(F)F)CC1` (single isomer, unassigned) [Example 796], the IC50 is 18.2 µM.

Take `CC1(CN(CC(=O)c2c(Cl)cncc2Cl)C(=O)c2cnn([C@H]3CC[C@H](C(=O)O)C(C)(C)C3)c2C(F)(F)F)CCC1` (single isomer, unassigned) [Example 807]: the IC50 is 0.0457 µM.

Consider `C[C@H]1C[C@@H](n2ncc(C(=O)N(CC(=O)c3c(Cl)cncc3Cl)CC(C)(C)C)c2C(F)(F)F)CC[C@@H]1C(=O)O` (single isomer, unassigned) [Example 813], for which the IC50 was 0.00603 µM.

Regarding `C[C@]1(C(=O)O)CC[C@H](n2ncc(C(=O)N3C[C@H](C4CCCCC4)C[C@@H]3C(=O)c3c(Cl)cncc3Cl)c2C(F)(F)F)CC1` (single isomer, unassigned) [Example 822], the IC50 was 5.89 µM.

`C[C@]1(C(=O)O)CC[C@H](n2ncc(C(=O)N3C[C@H](C4CCCCC4)C[C@H]3C(=O)c3c(Cl)cncc3Cl)c2C(F)(F)F)CC1` (single isomer, unassigned) [Example 823]: the IC50 was 9.12 µM.

Regarding `CC(C)(C)CN(CC(=O)c1c(Cl)cncc1Cl)C(=O)c1cnn([C@H]2C[C@]3(C[C@H](C(=O)O)C3)C2)c1C(F)(F)F` (single isomer, unassigned) [Example 837], the IC50 is 0.00372 µM.

Consider `C[C@H]1C[C@@](C)(C(=O)O)CCC1n1ncc(C(=O)N(CC(=O)c2c(Cl)cncc2Cl)CC(C)(C)C)c1C(F)(F)F` (single isomer, unassigned) [Example 843], for which the IC50 was 0.00589 µM.

In the case of `CC1(C)[C@@H]2C[C@H](N(CC(=O)c3c(Cl)cccc3Cl)C(=O)c3cnn([C@H]4C[C@@H](CC(=O)O)C4)c3C(F)(F)F)C[C@@H]21` (single isomer, unassigned) [Example 858], the IC50 is 0.002 µM.

Take `C[C@H]1C[C@@H](n2ncc(C(=O)N(CC(=O)c3c(Cl)cncc3Cl)CC(C)(C)C(F)(F)F)c2C(F)(F)F)CC[C@@H]1C(=O)O` (single isomer, unassigned) [Example 879]: the IC50 is 0.00295 µM.

With `Cc1cc(Cl)c(CCN(CC2(C)CCCCC2)C(=O)c2cnn(C3CCC(C(=O)O)CC3)c2C(F)(F)F)c(Cl)c1` (stereo in doubt) [Example 511, trans-4-(4-((2-(2,6-dichloro-4-methylphenyl)ethyl)((1-methylcyclohexyl)methyl)carbamoyl)-5-(trifluoromethyl)-1H-pyrazol-1-yl)cyclohexanecarboxylic acid], the IC50 was 0.00186 µM.
